The source made the active and inactive calls. The rule behind the calls is not given here.
Columns and labels:
A2780 [1] = experiment: Induction of apoptosis in human A2780 cells assessed as viable cells at […] after 48 hrs by annexin V/PI double staining (reference value: 82.12%); assay type: functional; conditions: A2780, 48 h, read-out: Activity
A2780 [2] = experiment: Induction of apoptosis in human A2780 cells assessed as viable cells at 1 uM after 48 hrs by annexin V/PI double staining (reference value: 82.12%); assay type: functional; conditions: A2780, 48 h, read-out: Activity
MCF7 [3] = experiment: Antiproliferative activity against human MCF7 cells assessed as cell growth inhibition after 72 hrs by MTT assay; assay type: functional; conditions: MCF7, 72 h
WI-38 [4] = experiment: Induction of apoptosis in human WI38 cells assessed as late-stage apoptotic cells at […] after 48 hrs by annexin V/PI double staining (reference value: 16.26%); assay type: functional
WI-38 [5] = experiment: Cell cycle arrest in human WI38 cells assessed as accumulation at G1 phase at 1 uM after 24 hrs by flow cytometric analysis (reference value: 55.89%); assay type: functional
A2780 [6] = experiment: Cell cycle arrest in human A2780 cells assessed as accumulation at S phase at 1 uM after 24 hrs by flow cytometric analysis (reference value: 22.72%); assay type: functional
A2780 [7] = experiment: Cell cycle arrest in human A2780 cells assessed as accumulation at subG1 phase at 1 uM after 24 hrs by flow cytometric analysis (reference value: 0.62%); assay type: functional
WI-38 [8] = experiment: Cell cycle arrest in human WI38 cells assessed as accumulation at S phase at 0.06 uM after 24 hrs by flow cytometric analysis (reference value: 16.25%); assay type: functional
WI-38 [9] = experiment: Cell cycle arrest in human WI38 cells assessed as accumulation at subG1 phase at 1 uM after 24 hrs by flow cytometric analysis (reference value: 10.53%); assay type: functional
A2780 [10] = experiment: Induction of apoptosis in human A2780 cells assessed as necrotic cells at 1 uM after 48 hrs by annexin V/PI double staining (reference value: 0.53%); assay type: functional
A2780 [11] = experiment: Cell cycle arrest in human A2780 cells assessed as accumulation at S phase at […] after 24 hrs by flow cytometric analysis (reference value: 22.72%); assay type: functional
A2780 [12] = experiment: Induction of apoptosis in human A2780 cells assessed as viable cells at 0.06 uM after 48 hrs by annexin V/PI double staining (reference value: 82.12%); assay type: functional; conditions: A2780, 48 h, read-out: Activity
A2780 [13] = experiment: Induction of apoptosis in human A2780 cells assessed as necrotic cells at 0.06 uM after 48 hrs by annexin V/PI double staining (reference value: 0.53%); assay type: functional
A2780 [14] = experiment: Induction of apoptosis in human A2780 cells assessed as late-stage apoptotic cells at […] after 48 hrs by annexin V/PI double staining (reference value: 10.20%); assay type: functional
WI-38 [15] = experiment: Induction of apoptosis in human WI38 cells assessed as necrotic cells at 0.06 uM after 48 hrs by annexin V/PI double staining (reference value: 0.99%); assay type: functional
LNCaP [16] = experiment: Antiproliferative activity against AR positive human LNCAP cells assessed as cell growth inhibition after 72 hrs by MTT assay; assay type: functional
WI-38 [17] = experiment: Induction of apoptosis in human WI38 cells assessed as viable cells at […] after 48 hrs by annexin V/PI double staining (reference value: 80.59%); assay type: functional; conditions: WI-38, 48 h, read-out: Activity
A2780 [18] = experiment: Cell cycle arrest in human A2780 cells assessed as accumulation at G1 phase at […] after 24 hrs by flow cytometric analysis (reference value: 54.89%); assay type: functional
A2780 [19] = experiment: Induction of apoptosis in human A2780 cells assessed as early-stage apoptotic cells at 1 uM after 48 hrs by annexin V/PI double staining (reference value: 7.13%); assay type: functional
[20] = Cmax in mouse at 10 mg/kg, po after 24 hrs; assay type: ADME, organism-based; set-up: dose 10 mg/kg, route oral; conditions: in vivo
[21] = Half life in rat liver microsomes; assay type: ADME
[22] = Octanol-buffer partition coefficient, log D of the compound at pH 7.4 by shake-flask method; assay type: physicochemical
[23] = Oral bioavailability (0 to t) in mouse at 10 mg/kg after 24 hrs; assay type: ADME, organism-based; conditions: in vivo
WI-38 [24] = experiment: Induction of apoptosis in human WI38 cells assessed as caspase-3/7 activation up to 1 uM after 24 hrs by using Apo-ONE homogeneous caspase-3/7 kit; assay type: functional, cell-based
[25] = Apparent permeability across apical to basolateral side in human Caco2 cells; assay type: ADME, cell-based; conditions: Caco-2
A2780 [26] = experiment: Reduction in Mcl1 level in human A2780 cells at 1 uM after 24 hrs by Western blot analysis; assay type: functional, cell-based
[27] = Elimination half life in mouse at 10 mg/kg, po after 24 hrs; assay type: ADME, organism-based; set-up: dose 10 mg/kg, route oral; conditions: in vivo, read-out: beta t1/2 (converted)
[28] = Apparent permeability across basolateral to apical side in human Caco2 cells; assay type: ADME, cell-based; conditions: Caco-2
[29] = Aqueous solubility of the compound by turbidimetric solubility assay; assay type: physicochemical; conditions: buffer
[30] = Dissociation constant, pKa of the compound by pH-metric method; assay type: physicochemical
[31] = target: Voltage-gated inwardly rectifying potassium channel KCNH2 (Homo sapiens, UniProt Q12809); experiment: Inhibition of human ERG expressed in CHO cells
Sequence of Voltage-gated inwardly rectifying potassium channel KCNH2 (Q12809 whole entry): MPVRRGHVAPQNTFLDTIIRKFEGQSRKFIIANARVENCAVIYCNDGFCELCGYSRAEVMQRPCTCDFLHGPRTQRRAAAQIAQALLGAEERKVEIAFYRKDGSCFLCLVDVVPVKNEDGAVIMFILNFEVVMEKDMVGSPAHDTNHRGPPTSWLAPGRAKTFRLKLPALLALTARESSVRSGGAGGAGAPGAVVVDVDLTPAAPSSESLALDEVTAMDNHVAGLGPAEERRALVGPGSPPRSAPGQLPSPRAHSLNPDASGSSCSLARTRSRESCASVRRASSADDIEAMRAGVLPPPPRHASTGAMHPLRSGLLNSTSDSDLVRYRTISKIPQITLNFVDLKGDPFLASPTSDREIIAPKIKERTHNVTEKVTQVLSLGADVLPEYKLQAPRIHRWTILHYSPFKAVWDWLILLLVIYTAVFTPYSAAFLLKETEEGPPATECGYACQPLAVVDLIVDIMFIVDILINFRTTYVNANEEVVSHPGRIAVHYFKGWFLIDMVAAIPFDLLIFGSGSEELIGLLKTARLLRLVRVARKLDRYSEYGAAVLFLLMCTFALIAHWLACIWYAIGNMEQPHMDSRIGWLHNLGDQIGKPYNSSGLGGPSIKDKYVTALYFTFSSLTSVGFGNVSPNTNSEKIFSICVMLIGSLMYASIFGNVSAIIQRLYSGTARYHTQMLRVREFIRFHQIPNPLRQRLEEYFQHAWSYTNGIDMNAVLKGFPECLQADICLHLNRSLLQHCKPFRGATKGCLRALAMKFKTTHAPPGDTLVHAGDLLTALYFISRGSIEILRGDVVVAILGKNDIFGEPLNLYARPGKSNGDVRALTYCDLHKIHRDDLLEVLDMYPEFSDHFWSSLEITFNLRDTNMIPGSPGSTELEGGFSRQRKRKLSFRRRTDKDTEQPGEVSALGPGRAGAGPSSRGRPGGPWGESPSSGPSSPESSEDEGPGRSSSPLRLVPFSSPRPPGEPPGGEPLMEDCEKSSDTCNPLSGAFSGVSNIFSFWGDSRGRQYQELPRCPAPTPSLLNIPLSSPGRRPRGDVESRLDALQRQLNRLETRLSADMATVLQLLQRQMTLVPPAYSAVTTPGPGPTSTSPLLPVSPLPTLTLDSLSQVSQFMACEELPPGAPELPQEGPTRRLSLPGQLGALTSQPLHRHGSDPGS

A2780 [32] = experiment: Induction of apoptosis in human A2780 cells assessed as caspase-3/7 activation at 1 uM after 24 hrs by using Apo-ONE homogeneous caspase-3/7 kit; assay type: functional, cell-based
PANC-1 = experiment: Ratio of ON01910 IC50 to compound IC50 for human PANC1 cells; assay type: functional
WI-38 [33] = experiment: Selectivity ratio of IC50 for human WI38 cells to IC50 for ER negative human MDA-MB-231 cells; assay type: functional
A2780 [34] = experiment: Reduction in CDC25C level in human A2780 cells at 0.03 uM after 24 hrs by Western blot analysis; assay type: functional, cell-based
[35] = Oral bioavailability (0 to t) in mouse at 40 mg/kg after 24 hrs; assay type: ADME, organism-based; conditions: in vivo
A2780 [36] = experiment: Selectivity ratio of IC50 for human WI38 cells to IC50 for human A2780 cells; assay type: functional
A2780 [37] = experiment: Antitumor activity against human A2780 cells xenografted in mouse assessed as delay tumor growth at 50 mg/kg, po administered every second day for 2 weeks; assay type: functional
HCT-116 = experiment: Selectivity ratio of IC50 for human WI38 cells to IC50 for human HCT116 cells; assay type: functional
LNCaP [38] = experiment: Ratio of ON01910 IC50 to compound IC50 for AR positive human LNCAP cells; assay type: functional
A2780 [39] = experiment: Induction of apoptosis in human A2780 cells assessed as caspase-3/7 activation at 0.06 uM after 24 hrs by using Apo-ONE homogeneous caspase-3/7 kit; assay type: functional, cell-based
MCF7 [40] = experiment: Selectivity ratio of IC50 for human WI38 cells to IC50 for ER positive human MCF7 cells; assay type: functional
LNCaP [41] = experiment: Selectivity ratio of IC50 for human WI38 cells to IC50 for AR positive human LNCAP cells; assay type: functional
A2780 [42] = experiment: Antitumor activity against human A2780 cells xenografted in mouse assessed as increase in life span at 50 mg/kg, po administered every second day for 2 weeks; assay type: functional
A2780 [43] = experiment: Reduction in Mcl1 level in human A2780 cells at 0.03 uM after 24 hrs by Western blot analysis; assay type: functional, cell-based
MDA-MB-231 = experiment: Ratio of ON01910 IC50 to compound IC50 for ER negative human MDA-MB-231 cells; assay type: functional

SMILES: COc1cc(OC)c(/C=C/S(=O)(=O)Cc2ccc(OC)c(NCC(=O)O)c2)c(OC)c1 [RIGOSERTIB]
- viability at […] (A2780 [1]): 46.2%
- viability at 1 µM (A2780 [2]): 26.6%
- GI50 (MCF7 [3]): 50 nM
- Activity (WI-38 [4]): 19.49%
- Activity (WI-38 [5]): 53.8%
- Activity (A2780 [6]): 33.83%
- Activity (A2780 [7]): 0.32%
- Activity (WI-38 [8]): 11.86%
- Activity (WI-38 [9]): 6.57%
- Activity (A2780 [10]): 1.19%
- Activity (A2780 [11]): 24.81%
- viability at 0.06 µM (A2780 [12]): 89.5%
- Activity (A2780 [13]): 0.34%
- Activity (A2780 [14]): 14.92%
- Activity (WI-38 [15]): 1.25%
- GI50 (LNCaP [16]): 25 nM
- viability at […] (WI-38 [17]): 73.2%
- Activity (A2780 [18]): 37.71%
- Activity (A2780 [19]): 50.22%

SMILES: COc1cc(OC)c(/C=C/S(=O)(=O)Cc2ccc(OC)c(NS(C)(=O)=O)n2)c(OC)c1
- viability at […] (A2780 [1]): 88%
- Cmax [20]: 2100 nM
- viability at 1 µM (A2780 [2]): 35.6%
- GI50 (MCF7 [3]): 468 nM
- half-life [21]: 1.88 h
- logD [22]: 1.53
- bioavailability [23]: 50%
- Activity (WI-38 [24]): inactive
- Papp A→B [25]: 3.15 ×10⁻⁶ cm/s
- Activity (WI-38 [4]): 11.58%
- Activity (WI-38 [5]): 58.17%
- inhibition (A2780 [26]): Active
- Activity (A2780 [6]): 19.16%
- Activity (A2780 [7]): 7.27%
- Activity (WI-38 [8]): 14.51%
- half-life [27]: 4.6 h
- Papp B→A [28]: 53.4 ×10⁻⁶ cm/s
- Activity (WI-38 [9]): 5.66%
- Activity (A2780 [10]): 1.31%
- Activity (A2780 [11]): 22.53%
- solubility kinetic [29]: > 100 µM
- viability at 0.06 µM (A2780 [12]): 87.4%
- Activity (A2780 [13]): 0.55%
- pKa [30]: 7.28
- Activity (A2780 [14]): 5.88%
- Activity (WI-38 [15]): 0.86%
- IC50 [31]: > 25000 nM
- Activity (A2780 [32]): Active
- GI50 (LNCaP [16]): 450 nM
- viability at […] (WI-38 [17]): 84.4%
- Activity (A2780 [18]): 57.35%
- Activity (A2780 [19]): 38.36%

SMILES: COc1cc(OC)c(/C=C/S(=O)(=O)Cc2ccc(OC)c(N)n2)c(OC)c1
- viability at […] (A2780 [1]): 25.3%
- Ratio IC50 (PANC-1): 10
- Ratio IC50 (WI-38 [33]): >1400
- viability at 1 µM (A2780 [2]): 22.2%
- inhibition (A2780 [34]): Active
- GI50 (MCF7 [3]): 6 nM
- half-life [21]: 0.25 h
- logD [22]: 2.41
- Activity (WI-38 [24]): inactive
- bioavailability [35]: 44%
- Papp A→B [25]: 33.1 ×10⁻⁶ cm/s
- Activity (WI-38 [4]): 8.7%
- Activity (WI-38 [5]): 60.09%
- Ratio IC50 (A2780 [36]): >1400
- Activity (A2780 [6]): 24.49%
- Activity (A2780 [7]): 2.71%
- Activity (WI-38 [8]): 9.81%
- Papp B→A [28]: 26.2 ×10⁻⁶ cm/s
- Activity (A2780 [37]): 52%
- Ratio IC50 (HCT-116): >1400
- Ratio IC50 (LNCaP [38]): 10
- Activity (A2780 [39]): Active
- Activity (WI-38 [9]): 8.09%
- Activity (A2780 [10]): 1.11%
- Ratio IC50 (MCF7 [40]): >1400
- Activity (A2780 [11]): 22.54%
- solubility kinetic [29]: > 100 µM
- viability at 0.06 µM (A2780 [12]): 33.3%
- Ratio IC50 (LNCaP [41]): >1400
- Activity (A2780 [13]): 2.88%
- Activity (A2780 [42]): 80%
- inhibition (A2780 [43]): Active
- pKa [30]: 4.67
- Activity (A2780 [14]): 25.61%
- Activity (WI-38 [15]): 3.39%
- IC50 [31]: > 25000 nM
- GI50 (LNCaP [16]): 3 nM
- Ratio IC50 (MDA-MB-231): 10
- viability at […] (WI-38 [17]): 84.4%
- Activity (A2780 [18]): 14.1%
- Activity (A2780 [19]): 55.45%

Reference: ChEMBL document CHEMBL3259791, “Discovery of (E)-3-((styrylsulfonyl)methyl)pyridine and (E)-2-((styrylsulfonyl)methyl)pyridine derivatives as anticancer agents: synthesis, structure-activity relationships, and biological activities” (J Med Chem, 2014)
